The test system of this data set is CCRIS mutagenicity, Ames/micronucleus/aberration tests. Description: CCRIS mutagenicity studies.
Setting [1] is: Test System: AMES SALMONELLA TYPHIMURIUM, Strain/Indicator: TA1535, Metabolic Activation: NONE, Method: PREINCUBATION
The mark [2] stands for this setting: Test System: AMES SALMONELLA TYPHIMURIUM, Strain/Indicator: TA1537, Metabolic Activation: NONE, Method: PREINCUBATION
The mark [3] stands for this setting: Test System: AMES SALMONELLA TYPHIMURIUM, Strain/Indicator: TA1538, Metabolic Activation: NONE, Method: PREINCUBATION
The mark [4] stands for this setting: Test System: AMES SALMONELLA TYPHIMURIUM, Strain/Indicator: TA98, Metabolic Activation: NONE, Method: PREINCUBATION
[5] abbreviates: Test System: AMES SALMONELLA TYPHIMURIUM, Strain/Indicator: TA100, Metabolic Activation: NONE, Method: PREINCUBATION

Calls of active or inactive are those of the source. The rule behind the calls is not given here.

For the compound `C[n+]1c2cc(N)ccc2cc2ccc(N)cc21`, the mutagenic call by setting is: under setting [1], “inactive; negative”; (Test System: AMES SALMONELLA TYPHIMURIUM, Strain/Indicator: TA1535, Metabolic Activation: RAT, LIVER, S-9, TETRACHLOROBIPHENYL, Method: PREINCUBATION) “inactive; negative”; under setting [2], “active; positive”; (Test System: AMES SALMONELLA TYPHIMURIUM, Strain/Indicator: TA1537, Metabolic Activation: RAT, LIVER, S-9, TETRACHLOROBIPHENYL, Method: PREINCUBATION) “active; positive”; under setting [3], “inactive; negative”; (Test System: AMES SALMONELLA TYPHIMURIUM, Strain/Indicator: TA1538, Metabolic Activation: RAT, LIVER, S-9, TETRACHLOROBIPHENYL, Method: PREINCUBATION) “active; positive”. For the same compound, the mutagenic call runs as follows: (Test System: AMES SALMONELLA TYPHIMURIUM, Strain/Indicator: TA1977, Metabolic Activation: NONE, Method: PREINCUBATION) “active; positive”; (Test System: AMES SALMONELLA TYPHIMURIUM, Strain/Indicator: TA1977, Metabolic Activation: RAT, LIVER, S-9, TETRACHLOROBIPHENYL, Method: PREINCUBATION) “active; positive”; (Test System: AMES SALMONELLA TYPHIMURIUM, Strain/Indicator: TA1978, Metabolic Activation: NONE, Method: PREINCUBATION) “inactive; negative”; (Test System: AMES SALMONELLA TYPHIMURIUM, Strain/Indicator: TA1978, Metabolic Activation: RAT, LIVER, S-9, TETRACHLOROBIPHENYL, Method: PREINCUBATION) “inactive; negative”.
As to `C[C@H](CCC(=O)O)[C@H]1CC[C@H]2[C@@H]3CCc4cc(O)ccc4[C@H]3CC[C@]12C`, the mutagenic call is “inactive; negative” under setting [4]; “inactive; negative” (Test System: AMES SALMONELLA TYPHIMURIUM, Strain/Indicator: TA98, Method: PREINCUBATION); “inactive; negative” (Test System: AMES SALMONELLA TYPHIMURIUM, Strain/Indicator: TA100, Method: PREINCUBATION).
As to `Oc1ccc2cc3c4ccccc4c4ccccc4c3cc2c1O`, the mutagenic call (Test System: AMES SALMONELLA TYPHIMURIUM, Strain/Indicator: TA100, Metabolic Activation: RAT, LIVER, S-9, AROCLOR 1254, Method: PREINCUBATION) is “active; positive”.
For the compound `O=[N+]([O-])c1ccc2[nH]c3ccc([N+](=O)[O-])cc3c2c1`, the mutagenic call reads like this: (Test System: AMES SALMONELLA TYPHIMURIUM, Strain/Indicator: TA98(NR), Metabolic Activation: NONE, Method: STANDARD PLATE) “active; positive”; (Test System: AMES SALMONELLA TYPHIMURIUM, Strain/Indicator: TA98(NR), Metabolic Activation: RAT, LIVER, S-9, AROCLOR 1254, Method: STANDARD PLATE) “active; positive”; (Test System: AMES SALMONELLA TYPHIMURIUM, Strain/Indicator: TA98, Metabolic Activation: NONE, Method: STANDARD PLATE) “active; positive”; (Test System: AMES SALMONELLA TYPHIMURIUM, Strain/Indicator: TA98, Metabolic Activation: RAT, LIVER, S-9, AROCLOR 1254, Method: STANDARD PLATE) “active; positive”.
Consider `Cc1ccc(N)cc1C`, for which the mutagenic call runs as follows: (Test System: AMES SALMONELLA TYPHIMURIUM, Strain/Indicator: TA97, Metabolic Activation: HAMSTER, LIVER, S-9, AROCLOR 1254 (10%), Method: PREINCUBATION) “inactive; negative”; (Test System: AMES SALMONELLA TYPHIMURIUM, Strain/Indicator: TA97, Metabolic Activation: NONE, Method: PREINCUBATION) “inactive; negative”; (Test System: AMES SALMONELLA TYPHIMURIUM, Strain/Indicator: TA97, Metabolic Activation: RAT, LIVER, S-9, AROCLOR 1254 (10%), Method: PREINCUBATION) “inactive; negative”; (Test System: AMES SALMONELLA TYPHIMURIUM, Strain/Indicator: TA98, Metabolic Activation: HAMSTER, LIVER, S-9, AROCLOR 1254 (10%), Method: PREINCUBATION) “inactive; negative”; under setting [4], “inactive; negative”; (Test System: AMES SALMONELLA TYPHIMURIUM, Strain/Indicator: TA98, Metabolic Activation: RAT LIVER S-9, PHENOBARBITAL AND BETA-NAPHTHOFLAVONE, Method: PREINCUBATION) “inactive; negative”. The mutagenic call is, setting by setting: (Test System: AMES SALMONELLA TYPHIMURIUM, Strain/Indicator: TA98, Metabolic Activation: RAT, LIVER, S-9, AROCLOR 1254 (10%), Method: PREINCUBATION) “inactive; negative”; (Test System: AMES SALMONELLA TYPHIMURIUM, Strain/Indicator: TA100, Metabolic Activation: HAMSTER, LIVER, S-9, AROCLOR 1254 (10%), Method: PREINCUBATION) “active; positive”; under setting [5], “inactive; negative”; (Test System: AMES SALMONELLA TYPHIMURIUM, Strain/Indicator: TA100, Metabolic Activation: RAT LIVER S-9, PHENOBARBITAL AND BETA-NAPHTHOFLAVONE, Method: PREINCUBATION) “inactive; negative”; (Test System: AMES SALMONELLA TYPHIMURIUM, Strain/Indicator: TA100, Metabolic Activation: RAT, LIVER, S-9, AROCLOR 1254 (10%), Method: PREINCUBATION) “inactive; negative”; (Test System: AMES SALMONELLA TYPHIMURIUM, Strain/Indicator: TA1535, Metabolic Activation: HAMSTER, LIVER, S-9, AROCLOR 1254 (10%), Method: PREINCUBATION) “inactive; negative”. For the same compound, the mutagenic call reads like this: under setting [1], “inactive; negative”; (Test System: AMES SALMONELLA TYPHIMURIUM, Strain/Indicator: TA1535, Metabolic Activation: RAT LIVER S-9, PHENOBARBITAL AND BETA-NAPHTHOFLAVONE, Method: PREINCUBATION) “inactive; negative”; (Test System: AMES SALMONELLA TYPHIMURIUM, Strain/Indicator: TA1535, Metabolic Activation: RAT, LIVER, S-9, AROCLOR 1254 (10%), Method: PREINCUBATION) “inactive; negative”; (Test System: AMES SALMONELLA TYPHIMURIUM, Strain/Indicator: TA1537, Metabolic Activation: HAMSTER, LIVER, S-9, AROCLOR 1254 (10%), Method: PREINCUBATION) “inactive; negative”; under setting [2], “inactive; negative”; (Test System: AMES SALMONELLA TYPHIMURIUM, Strain/Indicator: TA1537, Metabolic Activation: RAT LIVER S-9, PHENOBARBITAL AND BETA-NAPHTHOFLAVONE, Method: PREINCUBATION) “inactive; negative”. Further, the mutagenic call is, setting by setting: under setting [3], “inactive; negative”; (Test System: AMES SALMONELLA TYPHIMURIUM, Strain/Indicator: TA1538, Metabolic Activation: RAT LIVER S-9, PHENOBARBITAL AND BETA-NAPHTHOFLAVONE, Method: PREINCUBATION) “inactive; negative”; (Test System: E.COLI, Strain/Indicator: WP2UVRA, Metabolic Activation: NONE, Method: PREINCUBATION) “inactive; negative”; (Test System: E.COLI, Strain/Indicator: WP2UVRA, Metabolic Activation: RAT LIVER S-9, PHENOBARBITAL AND BETA-NAPHTHOFLAVONE, Method: PREINCUBATION) “inactive; negative”.
For `N[C@@H](CSC(Cl)=C(Cl)Cl)C(=O)O`, the mutagenic call by setting is: under setting [5], “active; positive”; (Test System: AMES SALMONELLA TYPHIMURIUM, Strain/Indicator: TA100, Metabolic Activation: NONE, Method: STANDARD PLATE) “active; positive”; (Test System: AMES SALMONELLA TYPHIMURIUM, Strain/Indicator: TA100, Metabolic Activation: RAT, KIDNEY, S-9, AROCLOR 1254, Method: STANDARD PLATE) “active; positive”; (Test System: AMES SALMONELLA TYPHIMURIUM, Strain/Indicator: TA2638, Metabolic Activation: NONE, Method: PREINCUBATION) “inactive; negative”.
For the compound `C[C@]12CC[C@@H]3c4ccc(O)cc4CC[C@H]3C13CCC2(O)CC3`, the mutagenic call by setting is: (End Point: IN VITRO CHROMOSOMAL ABERRATIONS, Test System: HUMAN PERIPHERAL LYMPHOCYTES, Metabolic Activation: NONE) “inactive; negative at 20-24 hr; positive (high doses) at 48 hr”; (End Point: IN VITRO CHROMOSOMAL ABERRATIONS, Test System: HUMAN PERIPHERAL LYMPHOCYTES, Metabolic Activation: RAT, LIVER, S-9, AROCLOR 1254) “inactive; negative”.
Regarding `c1ccc2c(c1)ccc1c2ccc2c3ccccc3ccc21`, the mutagenic call (Test System: AMES SALMONELLA TYPHIMURIUM, Strain/Indicator: TA100, Metabolic Activation: MOUSE, LIVER, S-10, AROCLOR 1254) was “active; positive”.
